Reference: patent publication US9056923B2, “Mimetic peptides derived from collagen type IV and their use for treating angiogenesis- and lymphagiogenesis-dependent diseases” (THE JOHNS HOPKINS UNIVERSITY, priority 2010, dated 2015)
Square brackets hold non-standard residues; d marks the D form. Ends that are not written are not given here. Peptide text beside a SMILES is read from it. AllylGly = C=CC[C@H](N)C(=O)O; Nle = CCCC[C@H](N)C(=O)O; Abu = CC[C@H](N)C(=O)O

Tests used:
Assay type in all cases: cell-based, human
[1] = system: HUVEC; details: for Activity in Proliferation / Proliferation Inhibition (IC50 in uM) / inhibition of proliferation: HUVEC; for Activity in Proliferation: Yes/No summary; for Proliferation Inhibition (IC50 in uM): summary tables 2-4, 6, 7
Experimental: Several assays were used to test the peptides discussed in the Examples herein. A colorimetric based proliferation assay using WST-1 (Roche, 11644807001) proliferation reagent was carried out using HUVEC cells. 2000 cells/well were plated in 96-well plates and allowed to adhere overnight. On the following day, the media was exchanged with fully supplemented media containing peptides or equivalent DMSO vehicle for the controls. Three days later the media containing the peptides was replaced with serum-free EBM-2 media containing WST-1 reagent and the plates were incubated for four hours as per the manufacturer's recommendations. Changes in color, due to the formazan dye resulted from the cleavage of the tetrazolium salt WST-1 by the mitochondrial succinate-tetrazolium reductase, were read on a Victor V fluorescence plate reader (Perkin Elmer, MA) by measuring the absorbance at 450 nm Dose response curves of percent live cells (in comparison to untreated cells but incubated in complete media with 0.2% DMSO) were created. Assays were performed in at least two independent replicates and each replicate was performed using three experimental triplicates.

[2] = system: HUVEC; assay: HUVEC migration assay (RT-CIM); details: for Migration Inhibition (50 uM): 50 uM peptide; for Activity in Migration: Yes/No summary, active = inhibitory potential greater than 30%; for Migration Inhibition (5 uM): 5 uM peptide
Experimental: The inhibitory potential of the peptides was measured using a real time migration assay system based on electrical impedance (RT-CIM, ACEA Biosciences, CA). CIM 16 well plates (Roche, 05665817001) are composed of a top and bottom chamber separated by a microporous (8 μm) polycarbonate membrane. The membrane was coated with fibronectin (20 μg/mL), and 45,000 cells/well in serum free media with or without peptides were added to the top compartment. Media with chemoattractant (i.e., fully supplemented EBM-2) was added to the bottom compartment of the chamber and the plate was incubated at 37° C. for 20 hours. The sensors integrated on the bottom side of the membrane monitor and continuously record changes in impedance as the cells move through the membrane. The RT-CIM technology allows for easy quantification of cell migration by monitoring the cell index derived from the measured impedances. Assays were performed in at least two independent replicates and each replicate was performed using two experimental duplicates.

[3] = system: HUVEC; details: HUVEC; for Adhesion Inhibition (100 uM): 100 uM peptide; for Activity in Adhesion: Yes/No summary, active = inhibitory potential greater than 30%
Experimental: Similar to the migration assays, the inhibition activity of the peptide in cellular adhesion was assessed using the RT-CIM technology. In this case, 25,000 cells/well were plated in 16 wells E-plates (Roche, Basel Switzerland) in the presence or absence of the peptide. The adhesion was monitored over time (3 hours) by measuring changes in the electrical impedance, which is a direct measure of the cells adhering on the electrodes. […] Assays were performed in at least two independent replicates and each replicate was performed using two experimental duplicates.

[4] = system: HUVEC; assay: HUVEC tube formation assay on Matrigel; details: for Tube formation Inhibition (100 uM): 100 uM peptide; for Activity in Tube formation: Yes/No summary; for inhibition of tube formation: concentration not given
Experimental: The compounds also were tested for their ability to inhibit tube formation, a process critical in angiogenesis. Endothelial cells spontaneously form a network of tubes when plated on extracts of extracellular matrix. This in vitro assay combines aspects of adhesion and migration and it is routinely used in angiogenesis research (Oliveira-Ferrer et al., 2008). The ability to inhibit tube formation is a comprehensive assessment of the anti-angiogenic potential. The protocol was described by Arnaoutova et al. (2009) and it consists of plating HUVEC on top of basement membrane extract and after incubation at 37° C. the cells naturally rearrange themselves in a network of tubes. Thus, 50 μL/well of Matrigel (BD Biosciences, San Jose, Calif.) was plated in a cold 96 well plate and incubated at 37° C. for 30 min for polymerization. 15,000 cells/well were added to the top of the gel and incubated in complete media in the presence or absence of peptide for 19 hours. Images were captured using the CCD Sensicam mounted on a Nikon microscope (Eclipse T-100). Assays were performed in at least two independent replicates and each replicate was performed using three experimental replicates and one image of a randomly chosen field was acquired per well.

| Molecule | IC50 [1] [µM] | Activity in Proliferation [1] | Migration Inhibition (50 uM) [2] | Activity in Migration [2] | Adhesion Inhibition (100 uM) [3] [%] | Activity in Adhesion [3] | Tube formation Inhibition (100 uM) [4] | Activity in Tube formation [4] | inhibition of tube formation (FIG. 20) ([4]; high dose, 100 nM) | Proliferation Inhibition (IC50 in uM) [1] | inhibition of migration ([2]; concentration not given) | inhibition of adhesion ([3]; concentration not given) | inhibition of proliferation [1] | Migration Inhibition (5 uM) [2] [%] | inhibition of tube formation [4] | migration inhibition ([2]; concentration not given) [%] | adhesion inhibition (FIG. 16) ([3]; concentration not given) |
| --- | --- | --- | --- | --- | --- | --- | --- | --- | --- | --- | --- | --- | --- | --- | --- | --- | --- |
| CC[C@H](NC(=O)[C@H](Cc1ccccc1)NC(=O)[C@H](CCSC)NC(=O)[C@@H](N)Cc1ccccc1)C(=O)N[C@@H](CC(N)=O)C(=O)N[C@H](C(=O)N[C@@H](CC(N)=O)C(=O)N[C@@H](CC(N)=O)C(=O)N[C@H](C(=O)N[C@@H](CC)C(=O)N[C@@H](CC(N)=O)C(=O)N[C@@H](Cc1ccccc1)C(=O)O)C(C)C)[C@@H](C)CC [SP2010, FMFAbuNINNVAbuNF] (H-FMF[Abu]NINNV[Abu]NF-OH; N-terminus and C-terminus assumed) | 155 | No | 13% | No | 82.69 | Yes | complete inhibition of tube formation | Yes | displayed activity in inhibiting tube formation |  |  |  |  |  |  |  |  |
| CCCC[C@H](NC(=O)[C@H](Cc1ccccc1)NC(=O)[C@@H]1CCCN1C(=O)[C@H](CCCC)NC(=O)[C@@H](NC(=O)[C@H](CO)NC(=O)[C@H](Cc1ccccc1)NC(=O)[C@H](CCCNC(=N)N)NC(=O)[C@H](CCCNC(=N)N)NC(=O)[C@@H](N)CC(C)C)[C@@H](C)O)C(=O)N[C@@H](Cc1ccccc1)C(=O)O [SP2014, LRRFSTNlePFNleF-OH] (H-LRRFST[Nle]PF[Nle]F-OH; N-terminus assumed) | > 100 | No | Inactive | No | 2.9 | No | Inactive | No |  | Inactive | absence of activity | absence of activity |  |  |  |  |  |
| C=CC[C@H](NC(=O)[C@H](Cc1ccccc1)NC(=O)[C@H](CCSC)NC(=O)[C@H](Cc1ccccc1)NC(=O)[C@@H]1CCCN1C(=O)[C@H](CCSC)NC(=O)[C@@H](NC(=O)[C@H](CO)NC(=O)[C@H](Cc1ccccc1)NC(=O)[C@H](CCCNC(=N)N)NC(=O)[C@H](CCCNC(=N)N)NC(=O)[C@@H](N)CC(C)C)[C@@H](C)O)C(=O)N[C@@H](CC(N)=O)C(=O)N[C@H](C(=O)N[C@@H](CC(N)=O)C(=O)N[C@@H](CC(N)=O)C(=O)N[C@H](C(=O)N[C@@H](CC=C)C(=O)N[C@@H](CC(N)=O)C(=O)N[C@@H](Cc1ccccc1)C(N)=O)C(C)C)[C@@H](C)CC [SP2026, LRRFSTMPFMF(AllyGly)NINNV(AllyGly)NF] (H-LRRFSTMPFMF[AllylGly]NINNV[AllylGly]NF-NH2; N-terminus assumed) | 8.23 | Yes |  | Yes | 96.61 | Yes | Complete | Yes |  |  |  |  | not affected | 11.43 |  |  |  |
| CC[C@H](NC(=O)[C@H](Cc1ccccc1)NC(=O)[C@H](CCSC)NC(=O)[C@H](Cc1ccccc1)NC(=O)[C@@H]1CCCN1C(=O)[C@H](CCSC)NC(=O)[C@@H](NC(=O)[C@H](CO)NC(=O)[C@H](Cc1ccccc1)NC(=O)[C@H](CCCNC(=N)N)NC(=O)[C@H](CCCNC(=N)N)NC(=O)[C@@H](N)CC(C)C)[C@@H](C)O)C(=O)N[C@@H](CC(N)=O)C(=O)N[C@H](C(=O)N[C@@H](CC(N)=O)C(=O)N[C@@H](CC(N)=O)C(N)=O)[C@@H](C)CC [SP2028, LRRFSTMPFMFAbuNINN] (H-LRRFSTMPFMF[Abu]NINN-NH2; N-terminus assumed) |  | Yes | 48.87% | Yes | 96.8 | Yes | Complete | Yes |  |  |  |  |  |  | Inhibition of tube formation |  |  |
| FTNINNVTN-NH2 [SP2031, FTNINNVTN] |  | Yes | 10.21% | Yes | 85 | Yes | Active | Yes |  |  |  |  | restored activity |  |  | > 50 | > 80 |
| LNRFSTMPF [SP2013, LNRFSTMPF] | > 100 | No | Inactive | No | 0.3 | No | Inactive | No |  | Inactive | absence of activity | absence of activity |  |  |  |  |  |
| LRRFSTMP-NH2 [SP2008] |  | No | Inactive | No | −0.1 | No | Inactive | No |  | Inactive | absence of activity | absence of activity |  |  |  |  |  |
| LRRFSTMPFMF [SP2004, LRRFSTMPFMF] | > 100 | No |  | No |  | No | Inactive | No |  | Inactive |  |  | inactive |  |  |  |  |
| LRRFSTMPFMFANINNVANF-NH2 [SP2023] |  | Yes |  | Yes | 96.29 | Yes | Complete | Yes |  |  |  |  |  | 31.18 |  |  |  |
| LRRFSTMPFMFININN-NH2 [SP2033, LRRFSTMPFMFININN] |  | Yes | 42.01% | Yes | 94 | Yes | Complete | Yes |  |  |  |  | potent activity in inhibiting proliferation |  | Inhibition of tube formation |  |  |
